According to PMC13580833, “Investigation of Thiazolidine‐2,4‐Dione Derivatives as Acetylcholinesterase Inhibitors: Synthesis, In Vitro Biological Activities and In Silico Studies” (ChemistryOpen, 2025):

How the values were obtained:
[1] = Ferric reducing/antioxidant power (FRAP) assay; details: ferrous ion equivalents per gram of test compound; triplicate
Procedure: The ferric reducing/antioxidant power (FRAP) assay was performed based on a previous study.[[15a]] […] A standard curve was drawn to analyze different concentrations of ferrous sulfate (0.1–1 mM). The analysis was conducted in triplicates and the value of antioxidant activity results were expressed in mmol ferrous ion equivalents per gram of test compounds (mmol Fe^2+/g).

BChE = BChE (Homo sapiens, UniProt P06276); assay: BChE inhibition assay (Ellman's method); format: biochemical
Procedure: The ChEs inhibitory activities based on Ellman's method were assessed using previously described methods.[[15b]] Acetylcholinesterase (electric eel, […]) inhibition assays were conducted with ATCI (10 mM) and DTNB (10 mM). The experiment required adding 50 μL of AChE in Tris‐HCl buffer (pH 8.0), 100 μL substrate, and 50 μL of the sample dissolved in DMSO (10 % in Tris‐HCl buffer) to the wells. For BChE inhibition, mixtures contained 30 μL of 10 mM DTNB, 5 μL of BChE, 30 μL of 10 mM BTChCl (10 mM), and 10 μL of samples.
All samples were dissolved in 10 % DMSO, and the experiment was performed in triplicate.

HSP70 = assay: Western blot of HSP70 in Aβ‐exposed PC12 cells; format: cell-based, Rattus norvegicus; details: for Decrease of HSP70 expression compared with the Aβ group: Aβ1‐42 100 μM
Procedure: (§1) PC12 cells were seeded in a 6‐well plate, treated CHT1 at concentrations of 5 and 8 μM for 24 hours, washed with cold PBS, and lysed with lysis buffer for 30 minutes on ice. After centrifugation at 12,000×g for 10 minutes at 4 °C, the lysates were transferred to new tubes. The Bradford assay was utilized to determine the protein concentration.[24] SDS–PAGE was used to separate the denatured proteins, which were subsequently transferred to PVDF membranes. The membranes were blocked with nonfat dry milk in PBS containing 0.1 % Tween‐20 (PBST) and then incubated overnight at 4 °C with primary antibodies against p‐Taul/Tau, HSP70, and β‐actin as a control. Subsequently, the membranes were exposed to a secondary antibody conjugated with horseradish peroxidase (HRP) for 2 hours at room temperature. Using the densitometric scanning technique in the ImageJ program, the density of the protein bands in the relative direction was determined.

PC12 cells [2] = assay: Growth of PC12 cells in response to treatments (Figure 5); format: cell-based, Rattus norvegicus; details: CHT1 pretreatment 5 and 8 μM in the presence of Aβ, 24 hours
p‐Tau/Tau = assay: Western blot of p‐Tau/Tau in Aβ‐exposed PC12 cells; format: cell-based, Rattus norvegicus; details: for Decrease of p‐Tau/Tau compared with the Aβ group: Aβ1‐42 100 μM
Procedure: as §1

PC12 cells [3] = assay: MTT assay, Aβ1‐42‐induced toxicity in PC12 cells; format: cell-based, Rattus norvegicus; details: 0.31–20 μM CHT1, 12, 24 and 48 h
Procedure: (§2) Rattus norvegicus pheochromocytoma PC12 cells (Pastor Institute, Iran) were cultured in Dulbecco's modified Eagle's medium (DMEM) supplemented with 10 % fetal bovine serum (FBS) and 1 % penicillin/streptomycin (Gibco) at 37 °C with 5 % CO2. PC12 cells were treated with different concentrations of CHT1 for 12, 24, or 48 hours, and promising results were obtained.
(§3) In addition, the Aβ1‐42 peptides were diluted in water and preaggregated at 37 °C for 7 days before use. The cellular AD model was successfully constructed in vitro by incubating PC12 cells with 100 μM aggregated Aβ for 24 hours. DMSO (50 μL) and 0.5 mg/mL MTT (10 μL) stock solution were added to each well for 4 hours of incubation. After 30 minutes, the plates were shaken, and the optical density was measured at 570 nm using an ELISA reader (Biotech). The MTT assay used by Pirali et al.,[23] which underwent slight modifications, yielded promising results.

[4] = MTT assay, Aβ1‐42‐induced toxicity in PC12 cells; format: cell-based, Rattus norvegicus; details: rat; PC12 cells, CHT1 20 μM, after 48 h, MTT; read-out: Viability percentage of that of the control
Procedure: as §2, §3

[5] = Western blotting, CHT1 5 and 8 μM
[6] = PC12 cells, Aβ1‐42 100 μM alone

Chain of BChE (P06276 29-602, species assumed): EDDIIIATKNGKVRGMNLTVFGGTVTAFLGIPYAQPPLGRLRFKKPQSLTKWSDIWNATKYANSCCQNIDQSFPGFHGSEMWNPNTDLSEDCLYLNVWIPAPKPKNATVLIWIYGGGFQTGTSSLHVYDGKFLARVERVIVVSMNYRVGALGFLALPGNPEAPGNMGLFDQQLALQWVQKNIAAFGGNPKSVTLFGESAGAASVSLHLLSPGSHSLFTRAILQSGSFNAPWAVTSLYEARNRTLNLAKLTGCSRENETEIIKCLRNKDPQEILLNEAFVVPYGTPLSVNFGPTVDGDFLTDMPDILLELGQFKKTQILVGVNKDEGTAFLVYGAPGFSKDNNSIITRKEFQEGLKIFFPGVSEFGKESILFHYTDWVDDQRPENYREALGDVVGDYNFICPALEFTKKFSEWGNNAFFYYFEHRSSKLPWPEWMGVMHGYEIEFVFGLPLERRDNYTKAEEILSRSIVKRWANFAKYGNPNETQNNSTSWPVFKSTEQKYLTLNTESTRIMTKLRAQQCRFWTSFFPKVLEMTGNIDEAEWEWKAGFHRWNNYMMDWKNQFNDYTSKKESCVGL

In the case of `O=C1O[C@H]([C@@H](O)CO)C(O)=C1O` [ascorbic acid, reference compound], the “Antioxidant capacity (FRAP)” value [1] is reported as 1.15 mmol Fe^2+/g.

For `O=C1NC(=O)C(=Cc2cccc3ccccc23)S1` [CHT5, 5‐((Naphthalene‐1‐yl)methylene)thiazolidine‐2,4‐dione], the “Antioxidant capacity (FRAP)” value [1] was 0.26 mmol Fe^2+/g and the IC50 (BChE) was 141 nM.

In the case of `COc1ccc(C=C2SC(O)=NC2=O)cc1` [CHT1, 5‐(4‐Methoxybenzylidene)thiazolidine‐2,4‐dione], the “Decrease of HSP70 expression compared with the Aβ group” value (“Decrease of HSP70 expression” below) (HSP70; PC12 cells, 5 μM) is reported as 2.1 fold, the “Decrease of HSP70 expression” value (HSP70; PC12 cells, 8 μM) is reported as 2.26 fold and the HSP70 expression level (HSP70; [5]) is reported as “downregulated”. For the same molecule, the “Density of PC12 cells compared with Aβ (100 μM)” value (PC12 cells [2]) was “increased the density of PC12 cells”, the “Decrease of p‐Tau/Tau compared with the Aβ group” value (p‐Tau/Tau; PC12 cells, 5 μM) was 2.26 fold and the “Decrease of p‐Tau/Tau compared with the Aβ group” value (p‐Tau/Tau; PC12 cells, 8 μM) was 2.01 fold. For the same molecule, the “p‐Tau expression level” value (p‐Tau/Tau; [5]) was “downregulated”, the “Antioxidant capacity (FRAP)” value [1] was 0.78 mmol Fe^2+/g and the IC50 (BChE) was 69.1 nM. For the same molecule, the “Acute toxicity in PC12 cells” value (PC12 cells [3]) was “acute toxicity was not observed”, the “Effect of pretreatment on Aβ1‐42‐induced cell death” value (PC12 cells [3]; PC12 cells, Aβ1‐42 100 μM) was “significant reduction in Aβ1‐42‐induced cell death in a dose‐dependent manner” and the viability at 48 h, 20 μM [4] was 66.5%.

For `COc1cc2c(cc1OC)C(=O)C(CC1CCN(Cc3ccccc3)CC1)C2` (centres unmarked) [Donepezil, donepezil, reference compound], the “Decrease of HSP70 expression” value (HSP70; PC12 cells, donepezil 75 μM (positive control)) was 1.92 fold.

With “amyloid beta 1–42 [Aβ1‐42, reference compound]” the “HSP70 level greater than in the control group” value (HSP70; [6]) was 3.35 fold and the “p‐Tau/Tau ratio greater than in the control group” value (p‐Tau/Tau; [6]) was 4.96 fold.

In the case of `O=C1NC(=O)C(=Cc2ccccc2O)S1` [CHT4, 5‐(2‐Hydroxybenzylidene)thiazolidine‐2,4‐dione], the “Antioxidant capacity (FRAP)” value [1] is reported as 0.45 mmol Fe^2+/g and the IC50 (BChE) is reported as 102 nM.

For `O=C1N=C(O)SC1=Cc1ccc(Cl)cc1` [CHT2, 5‐(4‐Chlorobenzylidene)thiazolidine‐2,4‐dione], the IC50 (BChE) was 125 nM.

For `O=C1NC(=O)C(=Cc2cccc(O)c2)S1` [CHT3, 5‐(3‐Hydroxybenzylidene)thiazolidine‐2,4‐dione], the “Antioxidant capacity (FRAP)” value [1] was 0.41 mmol Fe^2+/g and the IC50 (BChE) was 81.9 nM.
